Measured values from US9625466B2, “Signal amplification methods for the imaging of protein synthesis and neurotransmitter transport” (CORNELL UNIVERSITY, priority 2011, dated 2017).
“And” between values parts separate entries of the source, which are not always exact repeats. Equal entries are not always repeated. Where two headings read alike, the source gives them in different places. Marks after values point to notes of the source that are not given here.

Tests used:
[1] = molecular target: T1, ternary complex (Escherichia coli, UniProt P0CE48); assay: Functional drug assay: dissociation of pre-formed fluorescent ternary complex; format: biochemical, E. coli; conditions: for kapp,2 apparent rate of ternary complex dissociation: compound added to pre-formed ternary complex (400 nM EF-Tu/EF-Ts, 5 nM Cy3 Phe-tRNAPhe, 10 μM GTP), GDP 100 μM
T1 construct: 6-His tag followed by TEV protease site (N); made in house; host or cells: E. coli (bacterial expression vector pPROEX-Ht-b)
Method: After ternary complex was formed, drug was added to a final concentration of 1 μM. Decay curves were fit using non-linear least squares method as previously mentioned.
To test this hypothesis, ternary complex was formed at low, saturating concentrations of GTP (10 μM). […] To the formed complex, 100 μM GDP was then added and the rate of ternary complex dissociation was followed as a function of time.
To illustrate the dynamic equilibrium that exists between ternary complex and its constituents, EF-Tu-targeting drugs were delivered to pre-formed ternary complex in the same manner as GDP described above.

[2] = molecular target: EF-Tu (Escherichia coli, UniProt P0CE47); conditions: cited from earlier work
[3] = molecular target: T1, ternary complex; assay: Equilibrium titration of nucleotide into Cy3-labeled Phe-tRNAPhe with saturating EF-Tu; format: binding, E. coli; conditions: for RF Increase (%): Cy3 relative fluorescence increase at saturation, nucleotide titrated
Text: Initial experiments focused on the molecular determinants of ternary complex formation in vitro using E. coli EF-Tu and tRNA^Phe. […] Depending on the solution conditions of the experiment, the formation of ternary complex can be detected as either a rise or fall in fluorescence intensity depending strongly on the solution conditions of the Cy3 fluorophore linked to tRNA^Phe. Other tRNA species (e.g., Cy3-labeled tRNA^Lys) undergo similar changes in fluorescence intensity.
Fluorescence experiments were performed using a Photon Technology International fluorescence meter with a 550 nm high pass filter on the emission side. All samples were analyzed in a 3 mL quartz cuvette, with a stir bar, maintained at 23° C. […] Fluorescence intensity was measured by exciting Cy3 labeled tRNA^Phe with 532 nm light and recording emission intensities at 565 nm. The sample was allowed to mix for 1 minute after each subsequent addition of reagent before data acquisition.
[formula] (Abrahamson 1985). Values of Kd were obtained by performing a nonlinear least squares fit of the data from fluorescence experiments to equation 5 in Matlab (R2011a). The best-fit values are reported with asymptotic 95% confidence intervals.
To assess the affinity and nature of GTP's interactions with ternary complex, analogous titration experiments were carried out in which GTP was added to a solution of 5 nM Phe-tRNA^Phe (Cy3-acp3U47) in the presence of saturating concentrations of EF-Tu (40 times IQ). […] The non-hydrolysable analogs each saturated at a relative fluorescence value well below 30%, illustrating EF-Tu's sensitivity to the position of the gamma phosphate.

[4] = tested on: Phe-tRNA^Phe
[5] = tested on: Phe-tRNA^Phe; conditions: for RF Increase (%): Cy3 relative fluorescence increase on ternary complex formation, EF-Tu titrated
[6] = tested on: Phe-tRNA^Phe; conditions: 4° C., pH 7.4; cited from earlier work
[7] = 5 nM Phe-tRNAPhe (Cy3-acp3U47), saturating EF-Tu (400 nM EF-Tu/EF-Ts), read-out: Kd (apparent affinity of nucleotide for ternary complex)

Compound: Kirromycin
- reduction of relative fluorescence ([1]; 1 μM added to pre-formed ternary complex): ~20%
- kapp,2 rate of GDP mediated dissociation in the presence of kirromycin ([1]; 1 μM kirromycin, then GDP): 0.02* s^−1
- dissociation of ternary complex by saturating GDP with kirromycin present ([1]; 1 μM kirromycin, then saturating GDP): did not dissociate ternary complex in the time frame observed

Compound: C=C(NC(=O)C(=C)NC(=O)c1csc(C2=N[C@@H]3c4csc(n4)[C@H]4NC(=O)c5csc(n5)[C@H]([C@](C)(O)[C@@H](C)O)NC(=O)[C@H]5CSC(=N5)/C(=C/C)NC(=O)[C@H]([C@@H](C)O)NC(=O)c5csc(n5)[C@]3(CC2)NC(=O)[C@H](C)NC(=O)C(=C)NC(=O)[C@H](C)NC(=O)[C@H]([C@@H](C)CC)N[C@@H]2C=Cc3c([C@H](C)O)cc(nc3[C@H]2O)C(=O)O[C@@H]4C)n1)C(N)=O [Thiostrepton]
- kapp,2 apparent rate of ternary complex dissociation [1]: 0 s⁻¹
- disruption of the ternary complex ([1]; thiostrepton added to pre-formed ternary complex (10 μM per FIG. 17)): did not lead to disruption of the ternary complex

Compound: Nc1nc2c(ncn2[C@@H]2O[C@H](COP(=O)(O)OP(=O)(O)O)[C@@H](O)[C@H]2O)c(=O)[nH]1 [GDP]
- affinity for GDP relative to GTP ([2]; EF-Tu): 40 fold
- dissociation rate of GDP from EF-Tu•GDP•EF-Ts ([2]; Gromadski 2002): 125 s⁻¹
- kapp,2 apparent rate of ternary complex dissociation [1]: 0.3 s⁻¹ and 0.30 s⁻¹

Compound: Nc1nc2c(ncn2[C@@H]2O[C@H](COP(=O)(O)OP(=O)(O)OP(=O)(O)O)[C@@H](O)[C@H]2O)c(=O)[nH]1 [GTP, guanosine nucleotide triphosphate]
- Kd [3, 7]: 696 nM
- RF Increase (%) [3]: 30%
- Kd ([3]; Example 2, saturating EF-Tu (~300 nM), read-out: affinity of GTP in the formation of ternary complex): ~200 nM
- kon of GTP for the complex (kon=koff/KD) ([3]; model, from koff 0.3 s^−1 and KD): ~1e+06 M⁻¹ s⁻¹

Compound: EF-Tu (GTP): elongation factor Tu from E. coli, GTP-bound form, added as EF-Tu/EF-Ts complex
- association constant kon ([4]; EF-Tu and GTP (10 μM) added to 5 nM Cy3-labeled Phe-tRNAPhe): 1.4e+06 M⁻¹ s⁻¹
- dissociation rate koff ([4]; fit of triplicate time course to equation 7): 0.08 s⁻¹
- RF Increase (%) [5]: 30%
- RF Increase (%) ([5]; listed as EF-Tu): approximately 30%
- Kd ([5]; read-out: Kd (apparent dissociation constant between EF-Tu•GTP and Phe-tRNAPhe), 5 nM Phe-tRNAPhe (Cy3-acp3U47), 10 μM GTP, 23° C., ± 95% CI): 12.7 ± 1.1 nM
- Kd ([5]; read-out: Kd (apparent dissociation constant between EF-Tu•GTP and Phe-tRNAPhe), 5 nM Phe-tRNAPhe (Cy3-acp3U47), 10 μM GTP, 23° C., ± 95% CI, listed as EF-Tu•GTP): 12.6 nM
- Kd ([5]; read-out: Kd of EF-Tu's interaction with Phe-tRNAPhe, Example 2, saturating GTP (>10 μM)): ≤ 15 nM
- rate of association determined previously [6]: 1.5e+06 M⁻¹ s⁻¹

Compound: Nc1nc2c(ncn2[C@@H]2O[C@H](COP(=O)(O)OP(=O)(O)OP(O)(O)=S)[C@@H](O)[C@H]2O)c(=O)[nH]1 [GDPγS, guanosine 5′[γ-thio]triphosphate]
- Kd [3]: 3670 nM
- RF Increase (%) [3]: 5.5%

Compound: Nc1nc2c(ncn2[C@@H]2O[C@H](COP(=O)(O)OP(=O)(O)NP(=O)(O)O)[C@@H](O)[C@H]2O)c(=O)[nH]1 [GDPNP, guanylyl-imino-diphosphate]
- Kd [3, 7]: 9270 nM
- RF Increase (%) [3]: 7.3%
